This is an account of results in patent US5476782A, “DNA encoding a human 5-HT1E receptor and uses thereof” (Synaptic Pharmaceutical Corporation, priority 1995, dated 1995).

The target of assay [1] is T1, human 5-HT1E receptor (Homo sapiens, UniProt P28566). The experiment in a line: [3H]5-HT displacement binding, membranes of Ltk- cells transfected with cloned 5-HT1E receptor. On the set-up: The entire coding region of clone hp75d was cloned into the eukaryotic expression vector pcEXV-3; expressed in transfected cells; host or cells: Ltk- mouse fibroblast cells (line 5-HT1E-7, ATCC CRL 10913, plasmid pcEXV-hp75d). The note with it: for affinity (in words): displacement of [3H]5-HT specific binding; for decrease of affinity relative to serotonin: substitution or removal of the 5-hydroxy group. For orientation: Loss of bound radioactivity is the signal in a displacement assay; it reports binding, not function.
Protocol: Membranes were prepared from transfected Ltk^- cells which were grown to 100% confluency. The cells were washed twice with phosphate-buffered saline, scraped from the culture dishes into 5 ml of ice-cold phosphate-buffered saline, and centrifuged at 200×g for 5 min at 4° C. The pellet was resuspended in 2.5 ml of ice-cold Tris buffer (20 mM Tris -HCl, pH 7.4 at 23° C., 5 mM EDTA) and homogenized by a Wheaton tissue grinder. The lysate was subsequently centrifuged at 200×g for 5 min at 4° C. to pellet large fragments which were discarded. The supernatant was collected and centrifuged at 40,000× g for 20 min at 4° C. The pellet resulting from this centrifugation was washed once in ice-cold Tris buffer and finally resuspended in a final buffer containing 50 mM Tris-HCl and 0.5 mM EDTA, pH 7.4 at 23° C. Membrane preparations were kept on ice and utilized within two hours for the radioligand binding assays.
The binding profile of drugs in competition experiments was accomplished using 10-12 concentrations of compound. Incubation times were 30 min for both saturation and displacement studies based upon initial investigations which determined equilibrium binding conditions. […] Binding was initiated by the addition of 50 μl membrane homogenates (10-20 μg). The reaction was terminated by rapid filtration through presoaked (0.5% polyethyleneimine) filters using 48R Cell Brandel Harvester (Gaithersburg, Md.). Subsequently, filters were washed for 5 seconds with ice cold buffer (50 mM Tris HCL, pH 7.4 at 4° C.), dried and placed into vials containing 2.5 ml of Readi-Safe (Beckman, Fullerton, Calif.) and radioactivity was measured using a Beckman LS 5000TA liquid scintillation counter. […] Binding data was analyzed by computer-assisted nonlinear regression analysis (Accufit and Accucomp, Lundon Software, Chagrin Falls, Ohio). […] All experiments were performed in triplicate.

Assay [2] deals with human 5-HT1E receptor. The experiment in a line: Inhibition of [3H]5-HT specific binding by Gpp(NH)p (G-protein coupling). The note with it: inhibition of specific binding of [3H]5-HT.
A further assay deals with 5-HT1E binding site. The note with it: native site, human cortical tissue; cited from earlier work.
Assay [3] addresses T1, human 5-HT1E receptor. The note with it: forskolin-stimulated cAMP.
Protocol: Transfected Y1 cells (expression level=688 fmol/mg of protein) were incubated in DMEM, 5 mM theophylline, 10 mM Hepes (4-[2-Hydroxyethyl]-1-piperazineethanesulfonic acid), 10 μM pargyline, for 20 minutes at 37° C., 5% CO2. […] Subsequently, the cells were incubated for an additional 10 minutes at 37° C., 5% CO2. The media was aspirated and the reaction terminated by the addition of 100 mM HCl. The plates were stored at 4° C. for 15 minutes and centrifuged for 5 minutes (500×g at 4° C.) to pellet cellular debris. Aliquots of the supernatant fraction were then stored at -20° C. prior to assessment of cAMP formation by radioimmunoassay (cAMP Radioimmunoassay kit, Advanced Magnetics, Cambridge, Mass.).
Setting [4] is: displacement of 4.5-5.5 nM [3H]5-HT, 37° C., 30 min, Table 1, read-out: Ki.

Read-outs that look alike come from different tables or passages of the source.

T1 sequence (P28566 whole entry): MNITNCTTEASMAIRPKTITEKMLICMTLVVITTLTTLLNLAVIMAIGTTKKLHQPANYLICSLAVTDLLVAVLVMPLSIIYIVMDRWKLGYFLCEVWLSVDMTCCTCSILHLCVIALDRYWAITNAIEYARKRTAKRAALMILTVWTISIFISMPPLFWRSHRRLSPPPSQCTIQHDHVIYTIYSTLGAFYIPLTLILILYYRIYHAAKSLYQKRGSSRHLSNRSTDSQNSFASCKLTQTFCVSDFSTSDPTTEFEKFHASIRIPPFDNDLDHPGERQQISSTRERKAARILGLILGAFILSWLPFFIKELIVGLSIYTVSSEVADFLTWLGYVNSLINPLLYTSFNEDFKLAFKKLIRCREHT

Consider `COC(=O)[C@H]1[C@H]2C[C@H]3c4[nH]c5ccccc5c4CCN3C[C@H]2CC[C@@H]1O` [Rauwolscine], for which, at human 5-HT1E receptor [1], the affinity, expressed as Ki, was 3430 ± 102 nM.
At human 5-HT1E receptor [2], `Nc1nc2c(ncn2[C@@H]2O[C@H](COP(=O)(O)OP(=O)(O)NP(=O)(O)O)[C@@H](O)[C@H]2O)c(=O)[nH]1` [Gpp(NH)p] came in with an IC50 of 1880 ± 556 nM and an Imax of 26.4±5.6%.
Turning to `FC(F)(F)c1cccc(N2CCNCC2)c1` [TFMPP], on human 5-HT1E receptor [1] (setting [4]), the Ki came to 6290 ± 259 nM.
On to `Cc1cc(C(C)(C)C)c(O)c(C)c1CC1=NCCN1` [Oxymetazoline], for which the Ki on human 5-HT1E receptor [1] (setting [4]) came out at 419 ± 49 nM.
In the case of `CCCN(CCC)C1CCc2cccc(O)c2C1` (centres unmarked) [8-OH-DPAT], the Ki on human 5-HT1E receptor [1] (setting [4]) came to 3330 ± 310 nM. The “affinity (in words)” value on human 5-HT1E receptor [1] is “very poor affinity”.
With `CN1C[C@H](C(=O)N[C@]2(C)O[C@@]3(O)[C@@H]4CCCN4C(=O)[C@H](Cc4ccccc4)N3C2=O)C=C2c3cccc4[nH]cc(c34)C[C@H]21` [Ergotamine], the Ki at human 5-HT1E receptor [1] (setting [4]) amounted to 599 ± 39 nM. For the same compound, the “affinity (in words)” value in the assay on 5-HT1E binding site is “low affinity”.
As to `CC[C@@H](CO)NC(=O)[C@@H]1C=C2c3cccc4[nH]cc(c34)C[C@H]2N(C)C1` [Methylergonovine], the Ki at human 5-HT1E receptor [1] (setting [4]) was 89.4 ± 4.2 nM.
On to `CC[C@@H](CO)NC(=O)[C@@H]1C=C2c3cccc4c3c(cn4C)C[C@H]2N(C)C1` [Methysergide], for which, on human 5-HT1E receptor [1] (setting [4]), the inhibition constant (Ki) worked out at 228 ± 16 nM.
Consider `c1ccc2c(N3CCNCC3)cccc2c1` [1-Napthylpiperazine], for which the Ki on human 5-HT1E receptor [1] (setting [4]) amounted to 207 ± 69 nM; at human 5-HT1E receptor [1] (read-out: Ki values) it was 207 nM.
With `O=C(CCCN1CCC2(CC1)C(=O)NCN2c1ccccc1)c1ccc(F)cc1` [Spiperone], at human 5-HT1E receptor [1] (setting [4]), the inhibition constant Ki is 5050 ± 689 nM. Besides, on human 5-HT1E receptor [1], the “affinity (in words)” value was “very poor affinity”.
Take `CSc1ccc2c(c1)C(N1CCN(C)CC1)Cc1ccccc1S2` (centres unmarked) [Methiothepin]: the Ki on human 5-HT1E receptor [1] (setting [4]) was 194 ± 4 nM; at human 5-HT1E receptor [1] (read-out: Ki values) it was 194 nM.
Consider `C[C@@H](CO)NC(=O)[C@@H]1C=C2c3cccc4[nH]cc(c34)C[C@H]2N(C)C1` [Ergonovine], for which the affinity on human 5-HT1E receptor [1], expressed as Ki, was 87.7 ± 7.6 nM.
In the case of `CCCN(CCC)CCc1c[nH]c2ccc(C(N)=O)cc12` [DP-5-CT], the Ki on human 5-HT1E receptor [1] is greater than 10000 nM.
In the case of `Nc1ccc(CCN2CCN(c3cccc(C(F)(F)F)c3)CC2)cc1` [LY-165163 (PAPP)], the Ki on human 5-HT1E receptor [1] is greater than 10000 nM.
Consider `NCCc1c[nH]c2ccc(C(N)=O)cc12` [5-CT, 5-carboxyamidotryptamine], for which the Ki at human 5-HT1E receptor [1] (setting [4]) was 7880 ± 284 nM. Besides, at human 5-HT1E receptor [1], the “affinity (in words)” value is given as “low affinity” and the “decrease of affinity relative to serotonin” value was found to be 300 fold. Moreover, the “affinity (in words)” value with 5-HT1E binding site is recorded as “low affinity”.
On to `COc1ccc2[nH]cc(CCN)c2c1` [5-Methoxytryptamine], for which, on human 5-HT1E receptor [1] (setting [4]), the inhibition constant (Ki) is 3150 ± 1040 nM. Further, on human 5-HT1E receptor [1], the “decrease of affinity relative to serotonin” value is 300 fold.
`COC(=O)[C@@H]1[C@H]2C[C@H]3c4[nH]c5ccccc5c4CCN3C[C@@H]2CC[C@@H]1O` [Yohimbine]: the inhibition constant (Ki) on human 5-HT1E receptor [1] (setting [4]) was 1270 ± 233 nM.
As for `NCCc1c[nH]c2ccccc12` [Tryptamine], the Ki at human 5-HT1E receptor [1] (setting [4]) stood at 2560 ± 827 nM. Moreover, on human 5-HT1E receptor [1], the “decrease of affinity relative to serotonin” value was found to be 300 fold.
In the case of `COc1cc(N)c(Cl)cc1C(=O)NC1CN2CCC1CC2` (centres unmarked) [Zacopride], the “affinity (in words)” value on human 5-HT1E receptor [1] is reported as “very poor affinity”.
Consider `O=C(c1ccc(F)cc1)C1CCN(CCn2c(=O)[nH]c3ccccc3c2=O)CC1` [Ketanserin], for which the “affinity (in words)” value at human 5-HT1E receptor [1] is “very poor affinity”.
For the compound `COc1cc(CC(C)N)c(OC)cc1I` (centres unmarked) [DOI], at human 5-HT1E receptor [1] (setting [4]), the Ki turned out to be 2970 ± 592 nM. At human 5-HT1E receptor [1], the “affinity (in words)” value is given as “very poor affinity”.
Turning to `CC(C)NCC(O)COc1cccc2[nH]ccc12` (centres unmarked) [Pindolol], the “affinity (in words)” value on human 5-HT1E receptor [1] is reported as “very poor affinity”.
For the compound `NCCc1c[nH]c2ccc(O)cc12` [5-HT, 5-hydroxytryptamine], the “maximum inhibition of cAMP production” value on human 5-HT1E receptor [3] is recorded as 32%. In addition, the “affinity (in words)” value on human 5-HT1E receptor [1] is reported as “highest affinity”.
Take `CN1C[C@H](CO)C=C2c3cccc4[nH]cc(c34)C[C@H]21` [Lysergol]: at human 5-HT1E receptor [1] (setting [4]), the Ki came out at 42.8 ± 5.3 nM.
As to `Cc1[nH]c2ccc(O)cc2c1CCN` [2-Methyl-5-HT], the inhibition constant Ki at human 5-HT1E receptor [1] (setting [4]) is 817 ± 203 nM.

For orientation: Ki means a measure of affinity in units of concentration, obtained from inhibition or displacement. One may read the IC50 as the concentration that gives 50% inhibition. A lower IC50 goes with greater potency in that assay.
